Measurements: the supplement of paper PMC10627819

Columns and labels:
[1] = tested on: S. aureus DSM 20231; experiment: fitness (endpoint OD595 vs no drug) (fraction); higher = more growth
How it was run: (§1)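 Each well of a 384-well plate received 30 µl of culture at OD595 0.01, or 55 µl for S. pneumoniae. TSB, LB Lennox or CY served as media at 37 °C. OD595 was taken every 30 min for 14 h and corrected by subtracting the first reading. Fitness is the optical density at stationary-phase entry divided by the robust mean of no-drug controls, capped at 1.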

[2] = tested on: B. subtilis 168; experiment: as above
How it was run: as §1

[3] = tested on: S. aureus DSM 20231; experiment: Bliss interaction score (quartile over a dose matrix) (fitness difference); higher = more antagonism (negative = synergy)
How it was run: (§2)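 Quartiles summarise the Bliss score over technical, biological and donor/recipient replicates, where the score is observed minus expected fitness under a product model. Expected fitness uses single-drug values inferred from combination data. Fitness is OD595 at entry into stationary phase over the plate's robust no-drug mean, capped at 1.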

[4] = tested on: S. aureus Newman; experiment: as above
How it was run: as §2

[5] = tested on: S. pneumoniae D39V; experiment: as above
How it was run: as §2

[6] = tested on: B. subtilis 168; experiment: as above
How it was run: as §2

[7] = tested on: S. aureus Newman; experiment: fitness (endpoint OD595 vs no drug) (fraction); higher = more growth
How it was run: as §1

[8] = tested on: S. pneumoniae D39V; experiment: as above
How it was run: as §1
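Throughout, for Bliss interaction score (quartile over a dose matrix): first quartile when negative (synergy) and third quartile when positive (antagonism).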

CC[C@H]1OC(=O)[C@H](C)[C@@H](O[C@H]2C[C@@](C)(OC)[C@@H](O)[C@H](C)O2)[C@H](C)[C@@H](O[C@@H]2O[C@H](C)C[C@H](N(C)C)[C@H]2O)[C@](C)(O)C[C@@H](C)CN(C)[C@H](C)[C@@H](O)[C@]1(C)O [Azithromycin] + CC(=O)NC[C@H]1CN(c2ccc(N3CCOCC3)c(F)c2)C(=O)O1 [Linezolid]
fitness
Details | first compound 0.125 µg/mL | first compound 0.25 µg/mL | first compound 0.5 µg/mL | first compound 1 µg/mL
[1], partner 0.125 µg/mL | 0.768 | 0.744 | – | –
[1], partner 0.25 µg/mL | 0.608 | 0.557 | 0.191 | –
[1], partner 0.5 µg/mL | – | 0.151 | 0.0625 | –
[2], partner 0.25 µg/mL | – | – | 0.106 | –
[2], partner 0.5 µg/mL | – | 0.0659 | 0.0597 | 0.0407

one replicate
Details | fitness
[1], first compound 0.125 µg/mL, partner 1 µg/mL | 0.0489
[1], first compound 0.25 µg/mL, partner 1 µg/mL | 0.0402
[1], first compound 0.5 µg/mL, partner 1 µg/mL | 0.0193
[2], first compound 0.5 µg/mL, partner 0.0625 µg/mL | 0.759
[2], first compound 1 µg/mL, partner 0.0625 µg/mL | 0.287
[2], first compound 2 µg/mL, partner 0.0625 µg/mL | 0.023
[2], first compound 2 µg/mL, partner 0.125 µg/mL | 0
[2], first compound 2 µg/mL, partner 0.25 µg/mL | 0.029

Details | Bliss interaction score
[3] | -0.0673
[4] | -0.0582
[5] | -0.0318
[6] | -0.0849

CC[C@H]1OC(=O)[C@H](C)[C@@H](O[C@H]2C[C@@](C)(OC)[C@@H](O)[C@H](C)O2)[C@H](C)[C@@H](O[C@@H]2O[C@H](C)C[C@H](N(C)C)[C@H]2O)[C@](C)(O)C[C@@H](C)CN(C)[C@H](C)[C@@H](O)[C@]1(C)O [Azithromycin] + COc1cc(Cc2cnc(N)nc2N)cc(OC)c1OC [Trimethoprim]
fitness
Details | partner 0.125 µg/mL | partner 0.25 µg/mL | partner 0.5 µg/mL | partner 1 µg/mL
[1], first compound 0.125 µg/mL | 0.789 | 0.64 | 0.538 | 0.0427
[1], first compound 0.25 µg/mL | 0.782 | 0.658 | 0.562 | 0.03
[1], first compound 0.5 µg/mL | 0.38 | – | 0.292 | 0.0131
[2], first compound 0.25 µg/mL | 0.669 | 0.541 | 0.452 | –
[2], first compound 0.5 µg/mL | 0.471 | – | – | –
[2], first compound 2 µg/mL | – | 0.0144 | 0.0327 | –

fitness, [2], one replicate
Details | partner 0.1 µg/mL | partner 0.125 µg/mL | partner 0.2 µg/mL | partner 0.4 µg/mL | partner 1 µg/mL | partner 2 µg/mL
first compound 0.25 µg/mL | – | – | – | – | 0.106 | 0.0698
first compound 0.5 µg/mL | 0.365 | – | 0.257 | 0.111 | 0.051 | 0.0526
first compound 1 µg/mL | 0.144 | – | 0.0549 | 0.0194 | 0.0321 | 0.0311
first compound 2 µg/mL | 0.0143 | 0.0446 | 0.0451 | 0.0182 | – | –

Details | Bliss interaction score
[3] | 0.171
[4] | 0.175
[5] | -0.0811
[6] | -0.194

C[n+]1ccc(-c2cc[n+](C)cc2)cc1 [Paraquat] + CN[C@@H]1[C@H](O[C@H]2[C@H](O[C@H]3[C@H](O)[C@@H](O)[C@H](N=C(N)N)[C@@H](O)[C@@H]3N=C(N)N)O[C@@H](C)[C@]2(O)C=O)O[C@@H](CO)[C@H](O)[C@H]1O [Streptomycin]
fitness
Details | partner 1 µg/mL | partner 2 µg/mL | partner 4 µg/mL | partner 8 µg/mL
[2], first compound 1.25 µg/mL | – | 0.886 | – | 0.0237
[2], first compound 2.5 µg/mL | – | 0.924 | – | 0.0505
[2], first compound 5 µg/mL | – | 0.777 | 0.26 | 0.0406
[7], first compound 1.25 µg/mL | 0.99 | 0.882 | – | –
[7], first compound 2.5 µg/mL | 0.907 | 0.912 | – | –
[7], first compound 5 µg/mL | 0.908 | 0.859 | – | –
[8], first compound 1.5 µg/mL | – | 0.953 | 0.983 | 0.89
[8], first compound 3 µg/mL | – | 0.967 | 0.964 | 0.884
[8], first compound 6 µg/mL | – | 0.946 | 0.916 | 0.866

[8], partner 16 µg/mL, one replicate
Details | fitness
first compound 1.5 µg/mL | 0.865
first compound 3 µg/mL | 0.857
first compound 6 µg/mL | 0.722

Details | Bliss interaction score
[3] | 0.118
[4] | 0.0567
[5] | -0.0799
[6] | -0.119

CC1=C(C(=O)O)N2C(=O)[C@@H](NC(=O)[C@H](N)c3ccccc3)[C@H]2SC1 [Cephalexin] + CC1=C\[C@@H](O)CC(=O)Cc2nc(co2)C(=O)N2CCC=C2C(=O)O[C@H](C(C)C)[C@H](C)/C=C/C(=O)NC\C=C\1 [Virginiamycin M1]
fitness
Details | first compound 0.125 µg/mL | first compound 0.25 µg/mL | first compound 0.5 µg/mL | first compound 1 µg/mL | first compound 4 µg/mL
[2], partner 0.0625 µg/mL | 0.966 | 0.944 | 0.955 | – | –
[2], partner 0.125 µg/mL | 0.944 | 0.926 | 0.99 | – | –
[2], partner 0.25 µg/mL | 0.983 | 0.911 | 0.989 | – | –
[7], partner 0.0625 µg/mL | – | ≥ 1 | 0.994 | ≥ 1 | –
[7], partner 0.125 µg/mL | – | ≥ 1 | ≥ 1 | ≥ 1 | –
[7], partner 0.25 µg/mL | – | ≥ 1 | ≥ 1 | ≥ 1 | –
[8], partner 2 µg/mL | – | – | – | 0.663 | 0.0521

fitness, one replicate
Details | first compound 0.125 µg/mL | first compound 0.25 µg/mL | first compound 0.5 µg/mL | first compound 1 µg/mL | first compound 2 µg/mL | first compound 4 µg/mL
[7], partner 0.5 µg/mL | – | – | 0.847 | 0.951 | 0.986 | –
[7], partner 1 µg/mL | – | – | ≥ 1 | ≥ 1 | ≥ 1 | –
[7], partner 2 µg/mL | – | – | 0.936 | 0.923 | 0.978 | –
[8], partner 0.15 µg/mL | – | – | – | 0.934 | 0.646 | 0.0743
[8], partner 0.3 µg/mL | – | – | – | 0.885 | 0.628 | 0.0023
[8], partner 0.5 µg/mL | 0.967 | 0.964 | ≥ 1 | 0.562 | 0.316 | 0.338
[8], partner 1 µg/mL | 0.966 | 0.991 | ≥ 1 | 0.504 | 0.0366 | 0.0659
[8], partner 2 µg/mL | 0.954 | ≥ 1 | ≥ 1 | – | – | –

Details | Bliss interaction score
[3] | 0.0651
[4] | 0.023
[5] | 0.16
[6] | 0.0598

CC1=C(C(=O)O)N2C(=O)[C@@H](NC(=O)[C@H](N)c3ccccc3)[C@H]2SC1 [Cephalexin] + CCN(CC)CCOC(=O)c1ccc(N)cc1 [Procaine]
fitness
Details | first compound 0.125 µg/mL | first compound 0.25 µg/mL | first compound 0.5 µg/mL | first compound 1 µg/mL
[2], partner 85.5 µg/mL | 0.925 | 0.911 | 0.904 | –
[2], partner 171 µg/mL | 0.91 | 0.912 | 0.864 | –
[2], partner 342 µg/mL | 0.879 | 0.875 | 0.869 | –
[7], partner 85.5 µg/mL | – | 0.952 | – | –
[7], partner 342 µg/mL | – | 0.966 | 0.987 | ≥ 1

fitness, [8], one replicate
Details | first compound 0.125 µg/mL | first compound 0.25 µg/mL | first compound 0.5 µg/mL | first compound 1 µg/mL | first compound 2 µg/mL | first compound 4 µg/mL
partner 85.5 µg/mL | ≥ 1 | ≥ 1 | ≥ 1 | 0.253 | 0.0329 | 0.0487
partner 171 µg/mL | 0.958 | 0.982 | ≥ 1 | 0.422 | 0.058 | 0.0569
partner 342 µg/mL | 0.962 | 0.997 | ≥ 1 | 0.395 | 0.0539 | 0.0475

Details | Bliss interaction score
[3] | 0.0552
[4] | -0.0605
[5] | -0.118
[6] | 0.0569
